Measured values: US8952177B2 (Janssen Pharmaceutica NV, priority 2013, dated 2015)

Experiments:
[1] = molecular target: human FLAP (Homo sapiens (Human), UniProt P20292); assay: FLAP binding assay (HTRF format); settings: human FLAP-containing Sf-9 membranes, 25 nM HTRF ligand, 2 h; average of runs; read-out: FLAP Binding wild type HTRF Ki
Method in brief: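 His6-tagged human FLAP in Sf-9 membranes competed against a FITC-labelled indole FLAP modulator in HTRF format; 2 h reaction, read as HTRF ratio. Ki and IC50 from averaged duplicate ratios over 2–20 runs of two plates each; parenthetical numbers give run count.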

[2] = test system: leukotriene pathway in human whole blood (LTB4); assay: Human whole blood assay (LTB4 after calcium ionophore A23187 stimulation); type: cell-based; settings: human whole blood diluted 1:1 in RPMI, 15 min pre-incubation, A23187 7 μg/mL for 30 min at 37° Celsius
Method in brief: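 Heparinised human whole blood, diluted 1:1 in RPMI, was preincubated with compound for 15 min at 37° C. before stimulation with A23187 (7 μg/mL) for 30 min. Plasma LTB4 was measured by immunoassay kit and IC50 obtained by 4-parameter fit; single replicate per plate, blood from at least one donor.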

Sequence of human FLAP (P20292 whole entry): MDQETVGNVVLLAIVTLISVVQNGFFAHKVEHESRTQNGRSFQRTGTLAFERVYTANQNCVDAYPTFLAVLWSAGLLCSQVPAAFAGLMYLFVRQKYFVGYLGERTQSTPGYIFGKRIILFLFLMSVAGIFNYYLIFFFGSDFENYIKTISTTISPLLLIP

Ki [1]	IC50 ([2]; Homo sapiens)	IC50 [2]	Structure (SMILES)
11 nM	480 nM	–	CCC(CC)(Cc1nc2ccc(OCc3ncc(C)cc3F)cc2n1Cc1ccc(N2CCC(F)CC2)cc1)C(=O)O [Example 182, 2-Ethyl-2-({6-[(3-fluoro-5-methylpyridin-2-yl)methoxy]-1-[4-(4-fluoropiperidin-1-yl)benzyl]-1H-benzimidazol-2-yl}methyl)butanoic acid]
13 nM	880 nM	–	Cc1cnc(COc2ccc3nc(CC(C)(C)C(=O)O)n(Cc4ccc(N5CC(C(F)(F)F)C5)cc4F)c3c2)c(F)c1 [Example 183, 3-(6-[(3-Fluoro-5-methylpyridin-2-yl)methoxy]-1-{2-fluoro-4-[3-(trifluoromethyl)azetidin-1-yl]benzyl}-1H-benzimidazol-2-yl)-2,2-dimethylpropanoic acid]
15 nM	800 nM	–	Cc1cnc(COc2ccc3nc(CC(C)(C)C(=O)O)n(Cc4ccc(N5CCC(C(C)(C)C)CC5)cc4)c3c2)c(F)c1 [Example 184, 3-{1-[4-(4-tert-Butylpiperidin-1-yl)benzyl]-6-[(3-fluoro-5-methylpyridin-2-yl)methoxy]-1H-benzimidazol-2-yl}-2,2-dimethylpropanoic acid]
30 nM	710 nM	–	Cc1cnc(COc2ccc3nc(CC(C)(C)C(=O)O)n(Cc4ccc(N5CCC(F)CC5)cc4F)c3c2)c(F)c1 [Example 186]
7.3 nM	360 nM	–	CCC(CC)(Cc1nc2ccc(OCc3ccn(C)n3)cc2n1Cc1ccc(-c2ccc(C(F)(F)F)cc2)cc1F)C(=O)O [Example 187]
12 nM	–	550 nM	CCC(CC)(Cc1nc2ccc(OCc3ccn(C)n3)cc2n1Cc1ccc(-c2ccc(C(F)(F)F)cc2)cc1F)C(=O)O [Example 188]
210 nM	930 nM	–	CCC(CC)(Cc1nc2ccc(OCc3ccn(C)n3)cc2n1Cc1ccc(N2CCC(C(F)(F)F)CC2)cc1)C(=O)O [Example 190, 2-ethyl-2-((6-((1-methyl-1H-pyrazol-3-yl)methoxy)-1-(4-(4-(trifluoromethyl)piperidin-1-yl)benzyl)-1H-benzo[d]imidazol-2-yl)methyl)butanoic acid]
